Patent US4577016A, “Process for the preparation of penem derivatives” (Farmitalia Carlo Erba S.p.A., priority 1982, dated 1986)
Structures can show the parent of a compound that is named as a salt.

Experiments:
Format in all cases: cell-based
[1] = test system: penicillinase producer Staphylococcus aureus; assay: minimal inhibiting concentration against penicillinase producer Staphylococcus aureus; conditions: sodium salt
[2] = test system: penicillinase non-producer Staphylococcus aureus; assay: minimal inhibiting concentration against penicillinase non-producer Staphylococcus aureus; conditions: sodium salt
[3] = test system: Streptococcus pneumoniae; assay: minimal inhibiting concentration against Streptococcus pneumoniae; conditions: sodium salt
[4] = test system: Streptococcus pyogenes; assay: minimal inhibiting concentration against Streptococcus pyogenes; conditions: sodium salt
[5] = test system: Escherichia coli TEM; assay: activity against Escherichia coli TEM; conditions: in words
[6] = test system: Proteus vulgaris X 20; assay: activity against Proteus vulgaris X 20; conditions: in words
[7] = test system: Escherichia coli 1507 E; assay: activity against Escherichia coli 1507 E; conditions: in words
[8] = test system: Klebsiella pneumoniae ATCC 10031; assay: activity against Klebsiella pneumoniae ATCC 10031; conditions: in words
[9] = test system: Gram-positive bacteria; assay: activity against Gram-positive bacteria; conditions: in words
[10] = test system: Gram-negative bacteria; assay: minimal inhibiting concentrations against Gram-negative bacteria; conditions: in words

C[C@@H](O)[C@H]1C(=O)N2C(C(=O)O)=C(CSc3ccc4nnnn4n3)S[C@H]12 [Sodium(5R,6S)-6-[1(R)-hydroxyethyl]-2-(tetrazolo[1,5-b]-pyridazin-6-yl)-thiomethyl-penem-3-carboxylate]
MIC [1]: 4 ng/mL | MIC [2]: 4 ng/mL | MIC [3]: 2 ng/mL | MIC [4]: 2 ng/mL

C[C@@H](O)[C@H]1C(=O)N2C(C(=O)O)=C(CSc3nc(=O)c(O)nn3C)S[C@H]12 [(5R,6S)-6-[1(R)-hydroxyethyl]-2-(2-methyl-5-oxo-6-hydroxy-2,5-dihydro-1,2,4-triazin-3-yl)-thiomethyl-penem-3-carboxylic acid, disodium salt]
activity against Gram-negative bacteria [5]: particularly favourable activity | activity against Gram-negative bacteria [6]: particularly favourable activity | activity against Gram-negative bacteria [7]: particularly favourable activity | activity against Gram-negative bacteria [8]: particularly favourable activity

C[C@@H](O)[C@H]1C(=O)N2C(C(=O)O)=C(CSc3nnc(SCC(=O)O)s3)S[C@H]12 [(5R,6S)-6-[1(R)-hydroxyethyl]-2-(5-carboxymethylthio-1,3,4-thiadiazol-2-yl)-thiomethyl-penem-3-carboxylic acid]
minimal inhibiting concentrations against Gram-positive bacteria [9]: particularly favourable values | minimal inhibiting concentrations against Gram-negative bacteria [10]: particularly favourable values

C[C@@H](O)[C@H]1C(=O)N2C(C(=O)O)=C(CSc3ccc4nnnn4n3)S[C@H]12 [(5R,6S)-6-[1(R)-hydroxyethyl]-2-{tetrazolo[1,5-b]pyridazin-6-yl}-thiomethyl-penem-3-carboxylic acid]
activity against Gram-positive bacteria [9]: particularly active

C[C@@H](O)[C@H]1C(=O)N2C(C(=O)O)=C(CSc3nnnn3CCC(N)=O)S[C@H]12 [(5R,6S)-6-[1(R)-hydroxyethyl]-2-[1-(2-aminocarbonylethyl)-1,2,3,4-tetrazol-5-yl]-thiomethyl-penem-3-carboxylic acid]
minimal inhibiting concentrations against Gram-positive bacteria [9]: particularly favourable values | minimal inhibiting concentrations against Gram-negative bacteria [10]: particularly favourable values

C[C@@H](O)[C@H]1C(=O)N2C(C(=O)O)=C(CSc3nnnn3C)S[C@H]12 [(5R,6S)-6-[1(R)-hydroxyethyl]-2-[1-methyl-1,2,3,4-tetrazol-5-yl)-thiomethyl]-penem-3-carboxylic acid]
minimal inhibiting concentrations against Gram-positive bacteria [9]: particularly favourable values | minimal inhibiting concentrations against Gram-negative bacteria [10]: particularly favourable values
